Assay results published in EP2797914B1, “NIFURATEL SULFOXIDE FOR USE IN THE TREATMENT OF BACTERIAL INFECTIONS” (Polichem SA, priority 2011, dated 2013).
Converted amounts (≈) assume the structure as drawn. Read-outs that look alike come from different tables or passages of the source.

Experiments:
[1] = system: Shigella sonnei ATCC 11060; assay: MIC by broth microdilution method (CLSI M07-A8 / M11-A7); efficiency coefficient derived; type: cell-based
Protocol: (§1) The in vitro activity of nifuratel sulfoxide racemate, R-nifuratel sulfoxide and S-nifuratel sulfoxide was tested on a panel of bacteria, which included both Gram positive and Gram negative bacteria.
(§2) The minimum inhibitory concentrations (MICs) of the compounds were determined by the broth microdilution method or by the agar dilution method, according to the National Committee for Clinical Laboratory Standards (CLSI) reference methods M07-A8 and M11-A7.
(§3) The efficiency coefficient (EC) of nifuratel sulfoxide vs. nifuratel was calculated for each tested strain as follows: EC = relative oral bioavailability*[…] [formula]
(§4) Where: • nifS = nifuratel sulfoxide • nif = nifuratel • EC = 1 is indicative of equivalent efficiency between nifuratel sulfoxide and nifuratel. • EC < 1 is indicative of a lower efficiency of nifuratel sulfoxide vs. nifuratel • EC > 1 is indicative of a higher efficiency of nifS vs. nif

[2] = system: Salmonella paratyphi B ATCC 10719; assay: as above; type: cell-based
Protocol: as §1, §2, §3, §4

[3] = system: Micrococcus pyogenes ATCC 11631; assay: as above; type: cell-based
Protocol: as §1, §2, §3, §4

[4] = system: Proteus mirabilis ATCC 14153; assay: as above; type: cell-based
Protocol: as §1, §2, §3, §4

[5] = system: Salmonella typhimurium ATCC 14028; assay: as above; type: cell-based
Protocol: as §1, §2, §3, §4

[6] = system: Staphylococcus aureus (MRSA); assay: as above; type: cell-based
Protocol: as §1, §2, §3, §4

[7] = system: Neisseria gonorrhoeae ATCC 19424; assay: as above; type: cell-based
Protocol: as §1, §2, §3, §4

[8] = system: Klebsiella pneumonia ATCC 10031; assay: as above; type: cell-based
Protocol: as §1, §2, §3, §4

[9] = system: Escherichia coli ATCC 11775; assay: as above; type: cell-based
Protocol: as §1, §2, §3, §4

Gardnerella vaginalis = assay: MIC by agar dilution method (CLSI M07-A8 / M11-A7); efficiency coefficient derived; type: cell-based; conditions: for in vitro antimicrobial activity (in words): tested Gardnerella vaginalis strains
Protocol: as §1, §2, §3, §4

Atopobium vaginae = assay: as above; type: cell-based; conditions: for in vitro antimicrobial activity (in words): tested Atopobium vaginae strains
Protocol: as §1, §2, §3, §4

[10] = system: Lactobacillus iners ATCC 55195; assay: MIC by broth microdilution method (CLSI M07-A8 / M11-A7); type: cell-based
Protocol: The in vitro activity of nifuratel sulfoxide racemate, R-nifuratel sulfoxide and S-nifuratel sulfoxide was tested on a panel of bacteria, which included both Gram positive and Gram negative bacteria. The minimum inhibitory concentrations (MICs) of the compounds were determined by the broth microdilution method or by the agar dilution method, according to the National Committee for Clinical Laboratory Standards (CLSI) reference methods […]-A8 and M11-A7.

[11] = Rat pharmacokinetics in plasma, non compartmental analysis; type: in vivo, male rats; conditions: rat, in vivo
Protocol: The pharmacokinetic profiles in plasma of nifuratel and nifuratel sulfoxide were tested after intravenous administration (2mg/kg) and oral gavage (15mg/kg) in male rats. […]

[12] = Metabolic profiling of nifuratel in human urines by LC/MS/MS after oral administration; type: in vivo; conditions: in vivo, po
Protocol: As a matter of fact, metabolic profiling of nifuratel, following oral administration, was assessed in human urines by liquid chromatography/tandem mass spectrometry (LC/MS/MS).
More in details, urines of two subjects treated orally with nifuratel were collected at the following time-points: pre-dose, 0-4, 4-8, 8-12, 12-24, 24-36 and 36-48 h after treatment.
Nifuratel was not detected in any of the urine samples. […] Based on such a discovery, the applicant has performed both in vitro and in vivo tests in order to establish whether nifuratel sulfoxide is endowed with anti-bacterial activity.

[13] = broth microdilution, Micrococcus pyogenes ATCC 11631
[14] = broth microdilution, Proteus mirabilis ATCC 14153
[15] = broth microdilution, Salmonella typhimurium ATCC 14028
[16] = broth microdilution, Staphylococcus aureus (MRSA)
[17] = broth microdilution, Neisseria gonorrhoeae ATCC 19424
[18] = broth microdilution, Klebsiella pneumonia ATCC 10031
[19] = broth microdilution, Escherichia coli ATCC 11775
[20] = agar dilution, strain ATCC 14018
[21] = agar dilution, strain CCUG 38953
[22] = agar dilution, strain CCUG 39382
[23] = agar dilution, strain CCUG 42099
[24] = agar dilution, strain CCUG 43049
[25] = agar dilution, strain CCUG 44061
[26] = agar dilution, strain CCUG 44156
[27] = agar dilution, strain CCUG 48515
[28] = agar dilution, strain CCUG 55226
[29] = agar dilution, strain CCUG 55227
[30] = broth microdilution, Lactobacillus iners ATCC 55195

For C[S+]([O-])CC1CN(N=Cc2ccc([N+](=O)[O-])o2)C(=O)O1 (mixture of isomers) [S-Nifuratel sulfoxide, (S)-nifuratel sulfoxide], the MIC [1] was 16 µg/mL, the MIC [2] was 8 µg/mL and the MIC [3, 13] was 64 µg/mL. For the same compound, the MIC [4, 14] was 4 µg/mL, the MIC [5, 15] was 16 µg/mL and the MIC [6, 16] was 16 µg/mL. For the same compound, the MIC [7, 17] was 2 µg/mL, the MIC [8, 18] was 16 µg/mL and the MIC [9, 19] was 16 µg/mL. The MIC (Gardnerella vaginalis; [20]) was 16 µg/mL, the MIC (Gardnerella vaginalis; agar dilution, strain C2) was 16 µg/mL and the MIC (Gardnerella vaginalis; agar dilution, strain D2) was 16 µg/mL. The MIC (Gardnerella vaginalis; agar dilution, strain E2) was 32 µg/mL, the MIC (Gardnerella vaginalis; agar dilution, strain G2) was 16 µg/mL and the MIC (Gardnerella vaginalis; agar dilution, strain H2) was 8 µg/mL. For the same compound, the MIC (Gardnerella vaginalis; agar dilution, strain J2) was 16 µg/mL, the MIC (Gardnerella vaginalis; agar dilution, strain K2) was 32 µg/mL and the “in vitro antimicrobial activity (in words)” value (Gardnerella vaginalis) was “good activity”. It also gave an MIC (Atopobium vaginae; [21]) of 2 µg/mL, an MIC (Atopobium vaginae; [22]) of 2 µg/mL and an MIC (Atopobium vaginae; [23]) of 16 µg/mL. The MIC (Atopobium vaginae; [24]) was 8 µg/mL, the MIC (Atopobium vaginae; [25]) was 1 µg/mL and the MIC (Atopobium vaginae; [26]) was 2 µg/mL. For the same compound, the MIC (Atopobium vaginae; [27]) was 2 µg/mL, the MIC (Atopobium vaginae; [28]) was 8 µg/mL and the MIC (Atopobium vaginae; [29]) was 4 µg/mL. For the same compound, the “in vitro antimicrobial activity (in words)” value (Atopobium vaginae) was “good activity” and the MIC [10, 30] was 32 µg/mL.
CSCC1CN(/N=C/c2ccc([N+](=O)[O-])o2)C(=O)O1 (stereo not drawn) [Nifuratel] showed a C0 ([11]; male, iv, 2 mg/kg) of 798 ng/mL, a T1/7 ([11]; male, iv, 2 mg/kg) of 24 min and a Tlast ([11]; male, iv, 2 mg/kg) of 120 min. For the same compound, the concentration at 120 min ([11]; male, iv, 2 mg/kg) was 5 ng/mL, the Cmax ([11]; male, po, 15 mg/kg) was 8 ng/mL and the Tmax ([11]; male, po, 15 mg/kg) was 30 min. For the same compound, the Vss ([11]; iv, 2 mg/kg) was 4.5 kg⁻¹, the MIC ([1]; ATCC11060, read-out: MIC) was 1 µg/mL (≈ 3.51 µM) and the MIC ([2]; Salmonella enterica, read-out: MIC) was 2 µg/mL (≈ 7.01 µM). The MIC ([3]; Staphylococcus aureus, ATCC11631) was 1 µg/mL (≈ 3.51 µM), the MIC ([4]; Proteus mirabilis, ATCC14153) was 8 µg/mL (≈ 28 µM) and the MIC ([5]; Salmonella enterica) was 4 µg/mL (≈ 14 µM). For the same compound, the MIC ([6]; Staphylococcus aureus, MRSA) was 2 µg/mL (≈ 7.01 µM), the MIC ([7]; Neisseria gonorrhoeae, ATCC19424) was 0.25 µg/mL (≈ 0.876 µM) and the MIC ([8]; Klebsiella pneumoniae, ATCC10031) was 2 µg/mL (≈ 7.01 µM). It also gave an MIC ([9]; Escherichia coli, ATCC11775) of 1 µg/mL (≈ 3.51 µM), an MIC (Gardnerella vaginalis; Gardnerella vaginalis, ATCC14018, agar dilution, strain ATCC 14018) of 2 µg/mL (≈ 7.01 µM) and an MIC (Gardnerella vaginalis; Gardnerella vaginalis, agar dilution, strain C2) of 8 µg/mL (≈ 28 µM). For the same compound, the MIC (Gardnerella vaginalis; Gardnerella vaginalis, agar dilution, strain D2) was 4 µg/mL (≈ 14 µM), the MIC (Gardnerella vaginalis; Gardnerella vaginalis, agar dilution, strain E2) was 2 µg/mL (≈ 7.01 µM) and the MIC (Gardnerella vaginalis; Gardnerella vaginalis, agar dilution, strain G2) was 2 µg/mL (≈ 7.01 µM). The MIC (Gardnerella vaginalis; Gardnerella vaginalis, agar dilution, strain H2) was 1 µg/mL (≈ 3.51 µM), the MIC (Gardnerella vaginalis; Gardnerella vaginalis, agar dilution, strain J2) was 2 µg/mL (≈ 7.01 µM) and the MIC (Gardnerella vaginalis; Gardnerella vaginalis, agar dilution, strain K2) was 4 µg/mL (≈ 14 µM). It also gave an MIC (Atopobium vaginae; Fannyhessea vaginae, CCUG38953) of 0.125 µg/mL (≈ 0.438 µM), an MIC (Atopobium vaginae; Fannyhessea vaginae, CCUG39382) of 0.25 µg/mL (≈ 0.876 µM) and an MIC (Atopobium vaginae; Fannyhessea vaginae, CCUG42099) of 0.5 µg/mL (≈ 1.75 µM). The MIC (Atopobium vaginae; Fannyhessea vaginae, CCUG43049) was 0.25 µg/mL (≈ 0.876 µM), the MIC (Atopobium vaginae; Fannyhessea vaginae, CCUG44061) was 0.5 µg/mL (≈ 1.75 µM) and the MIC (Atopobium vaginae; Fannyhessea vaginae, CCUG44156) was 0.5 µg/mL (≈ 1.75 µM). For the same compound, the MIC (Atopobium vaginae; Fannyhessea vaginae, CCUG48515) was 1 µg/mL (≈ 3.51 µM), the MIC (Atopobium vaginae; Fannyhessea vaginae, CCUG55226) was 1 µg/mL (≈ 3.51 µM) and the MIC (Atopobium vaginae; Fannyhessea vaginae, CCUG55227) was 0.25 µg/mL (≈ 0.876 µM). For the same compound, the “detection of parent compound in urine samples” value [12] was “not detected” and the MIC ([10]; Lactobacillus iners, ATCC55195) was 16 µg/mL (≈ 56.1 µM).
C[S+]([O-])CC1CN(N=Cc2ccc([N+](=O)[O-])o2)C(=O)O1 (mixture of isomers) [R-Nifuratel sulfoxide, (R)-nifuratel sulfoxide] gave an MIC [1] of 16 µg/mL, an MIC [2] of 16 µg/mL and an MIC [3, 13] of 32 µg/mL. The MIC [4, 14] was 8 µg/mL, the MIC [5, 15] was 16 µg/mL and the MIC [6, 16] was 16 µg/mL. The MIC [7, 17] was 2 µg/mL, the MIC [8, 18] was 16 µg/mL and the MIC [9, 19] was 16 µg/mL. The MIC (Gardnerella vaginalis; [20]) was 8 µg/mL, the MIC (Gardnerella vaginalis; agar dilution, strain C2) was 32 µg/mL and the MIC (Gardnerella vaginalis; agar dilution, strain D2) was 64 µg/mL. For the same compound, the MIC (Gardnerella vaginalis; agar dilution, strain E2) was 64 µg/mL, the MIC (Gardnerella vaginalis; agar dilution, strain G2) was 64 µg/mL and the MIC (Gardnerella vaginalis; agar dilution, strain H2) was 16 µg/mL. For the same compound, the MIC (Gardnerella vaginalis; agar dilution, strain J2) was 32 µg/mL, the MIC (Gardnerella vaginalis; agar dilution, strain K2) was 64 µg/mL and the “in vitro antimicrobial activity (in words)” value (Gardnerella vaginalis) was “good activity”. It also gave an MIC (Atopobium vaginae; [21]) of 1 µg/mL, an MIC (Atopobium vaginae; [22]) of 1 µg/mL and an MIC (Atopobium vaginae; [23]) of 1 µg/mL. It also gave an MIC (Atopobium vaginae; [24]) of 4 µg/mL, an MIC (Atopobium vaginae; [25]) of 1 µg/mL and an MIC (Atopobium vaginae; [26]) of 2 µg/mL. For the same compound, the MIC (Atopobium vaginae; [27]) was 2 µg/mL, the MIC (Atopobium vaginae; [28]) was 2 µg/mL and the MIC (Atopobium vaginae; [29]) was 1 µg/mL. For the same compound, the “in vitro antimicrobial activity (in words)” value (Atopobium vaginae) was “good activity” and the MIC [10, 30] was 16 µg/mL.
